Values after ≈ are worked out from the molar mass of the structure shown.
Legend:
[1] = tested on: Klebsiella pneumoniae; assay: Minimum inhibitory concentration against Klebsiella pneumoniae (CR; Ciprofloxacin resistant) KL328; format: functional
[2] = tested on: Staphylococcus aureus; assay: Minimum inhibitory concentration against Staphylococcus aureus (MSCS; Methicillin sensitive, ciprofloxacin sensitive) MI246; format: functional
[3] = tested on: Escherichia coli; assay: Minimum inhibitory concentration against Escherichia coli DC2; format: functional
[4] = molecular target: DNA topoisomerase II (Homo sapiens, UniProt P11388+Q02880); assay: Inhibitory activity against mammalian DNA topoisomerase II; format: protein assay
[5] = tested on: Streptococcus pyogenes; assay: Minimum inhibitory concentration against Streptococcus pyogenes STA2; format: functional
[6] = tested on: Escherichia coli; assay: Minimum inhibitory concentration against Escherichia coli DC0; format: functional
[7] = tested on: Staphylococcus saprophyticus; assay: Minimum inhibitory concentration against Staphylococcus saprophyticus SS276; format: functional
[8] = tested on: Enterococcus faecalis; assay: Minimum inhibitory concentration against Enterococcus faecalis STD44
[9] = molecular target: DNA gyrase (Escherichia coli); assay: Inhibitory activity against quinolone resistant gyrase in Escherichia coli
[10] = tested on: Staphylococcus aureus; assay: Minimum inhibitory concentration against Staphylococcus aureus (MSCR; Methicillin sensitive, ciprofloxacin resistant) MI345; format: functional
[11] = tested on: Escherichia coli; assay: Minimum inhibitory concentration against Escherichia coli ES142; format: functional
[12] = molecular target: DNA gyrase (Escherichia coli); assay: Inhibitory activity against wild type gyrase in Escherichia coli
[13] = tested on: Staphylococcus aureus; assay: Minimum inhibitory concentration against Staphylococcus aureus (MRCR; Methicillin resistant, ciprofloxacin resistant) MI339
[14] = tested on: Streptococcus pneumoniae; assay: Minimum inhibitory concentration against Streptococcus pneumoniae (PR; Penicillin resistant) STP51; format: functional
[15] = tested on: Staphylococcus epidermidis; assay: Minimum inhibitory concentration against Staphylococcus epidermidis (MSCR; Methicillin sensitive, ciprofloxacin resistant) SE48; format: functional
[16] = tested on: Enterococcus faecium; assay: Minimum inhibitory concentration against Enterococcus faecium (VR; Vancomycin resistant) EF12; format: functional
[17] = tested on: Streptococcus pneumoniae; assay: Minimum inhibitory concentration against Streptococcus pneumoniae (PS; Penicillin sensitive) STP6301; MIC (ug/mL) No growth; format: functional, organism-based
[18] = tested on: Enterobacter cloacae; assay: Minimum inhibitory concentration against Enterobacter cloacae AE63; format: functional
[19] = tested on: Enterococcus faecium; assay: Minimum inhibitory concentration against Enterococcus faecium (VS; Vancomycin sensitive) EF1; format: functional
[20] = tested on: Proteus mirabilis; assay: Minimum inhibitory concentration against Proteus mirabilis PR91; format: functional
[21] = tested on: Pseudomonas aeruginosa; assay: Minimum inhibitory concentration against Pseudomonas aeruginosa PS96; format: functional
[22] = tested on: Streptococcus viridans; assay: Minimum inhibitory concentration against Streptococcus viridans STV1; format: functional
[23] = tested on: Moraxella catarrhalis; assay: Minimum inhibitory concentration against Moraxella catarrhalis MC2; format: functional
[24] = tested on: Staphylococcus aureus; assay: Minimum inhibitory concentration against Staphylococcus aureus (MRCS; Methicillin resistant, ciprofloxacin sensitive) MI300; format: functional
[25] = tested on: Staphylococcus aureus; assay: Minimum inhibitory concentration against Staphylococcus aureus (MSCS; Methicillin sensitive, ciprofloxacin sensitive) MI273; format: functional
[26] = tested on: Klebsiella pneumoniae; assay: Minimum inhibitory concentration against Klebsiella pneumoniae KL21; format: functional
[27] = tested on: Streptococcus pneumoniae; assay: Minimum inhibitory concentration against Streptococcus pneumoniae (PS; Penicillin sensitive) STP6301; format: functional
[28] = tested on: Enterococcus faecalis; assay: Minimum inhibitory concentration against Enterococcus faecalis STD44; MIC (ug/mL) No growth
[29] = tested on: Streptococcus pneumoniae; assay: Minimum inhibitory concentration against Streptococcus pneumoniae PS; Penicillin sensitive) STP64; format: functional
[30] = tested on: Enterococcus faecium; assay: Minimum inhibitory concentration against Enterococcus faecium (VR; Vancomycin resistant) EF12; MIC (ug/mL) No growth; format: functional, organism-based
[31] = tested on: Enterobacter cloacae; assay: Minimum inhibitory concentration against Enterobacter cloacae AE63; MIC (ug/mL) No growth; format: functional, organism-based

Row | Structure (SMILES) | MIC [1] [µg/mL] | MIC [2] [µg/mL] | MIC [3] [µg/mL] | IC50 [4] [µg/mL] | MIC [5] [µg/mL] | MIC [6] [µg/mL] | MIC [7] [µg/mL] | IC50 [9] [µg/mL] | MIC [10] [µg/mL] | MIC [11] [µg/mL] | MIC [13] [µg/mL] | MIC [15] [µg/mL] | MIC [19] [µg/mL] | MIC [20] [µg/mL] | MIC [21] [µg/mL] | MIC [22] [µg/mL] | MIC [23] [µg/mL] | MIC [24] [µg/mL] | MIC [25] [µg/mL] | MIC [26] [µg/mL] | other results
1 | C[C@H](N)[C@@H]1CCN(c2ccc3c(=O)c(C(=O)O)cn4c3c2OC[C@@H]4C)C1 | > 8 | 0.031 (≈ 0.0867 µM) | 0.063 (≈ 0.176 µM) | 38 (≈ 106 µM) | 0.016 (≈ 0.0448 µM) | 2 (≈ 5.6 µM) | 0.125 (≈ 0.35 µM) | 51.2 (≈ 143 µM) | 1 (≈ 2.8 µM) | 0.5 (≈ 1.4 µM) | 2 (≈ 5.6 µM) | 1 (≈ 2.8 µM) | 1 (≈ 2.8 µM) | 2 (≈ 5.6 µM) | 1 (≈ 2.8 µM) | 0.125 (≈ 0.35 µM) | 0.125 (≈ 0.35 µM) | 0.063 (≈ 0.176 µM) | 0.125 (≈ 0.35 µM) | 0.016 (≈ 0.0448 µM) | MIC [8]: 0.031 µg/mL (≈ 0.0867 µM); IC50 [12]: 6.4 µg/mL (≈ 17.9 µM); MIC [14]: 0.063 µg/mL (≈ 0.176 µM); MIC [16]: 1 µg/mL (≈ 2.8 µM); MIC [17]: No growth; MIC [18]: 0.125 µg/mL (≈ 0.35 µM)
2 | C[C@H]1COc2c(N3CC[C@@H](C(C)(C)N)C3)ccc3c(=O)c(C(=O)O)cn1c23 | > 8 | 0.063 (≈ 0.17 µM) | 0.125 (≈ 0.337 µM) | 150 (≈ 404 µM) | 0.016 (≈ 0.0431 µM) | 4 (≈ 10.8 µM) | 0.031 (≈ 0.0835 µM) | > 102 | 2 (≈ 5.38 µM) | 0.5 (≈ 1.35 µM) | 2 (≈ 5.38 µM) | 1 (≈ 2.69 µM) | 1 (≈ 2.69 µM) | 4 (≈ 10.8 µM) | 4 (≈ 10.8 µM) | 1 (≈ 2.69 µM) | 0.063 (≈ 0.17 µM) | 0.063 (≈ 0.17 µM) | 0.125 (≈ 0.337 µM) | 0.031 (≈ 0.0835 µM) | MIC [8]: 0.125 µg/mL (≈ 0.337 µM); IC50 [12]: 3.2 µg/mL (≈ 8.62 µM); MIC [14]: 0.5 µg/mL (≈ 1.35 µM); MIC [16]: 1 µg/mL (≈ 2.69 µM); MIC [18]: 0.25 µg/mL (≈ 0.673 µM); MIC [27]: 0.016 µg/mL (≈ 0.0431 µM)
3 | C[C@H]1COc2c(N3CCC[C@H](N)C3)ccc3c(=O)c(C(=O)O)cn1c23 | > 32 | 2 (≈ 5.82 µM) | 2 (≈ 5.82 µM) | > 500 | > 32 | 16 (≈ 46.6 µM) | 16 (≈ 46.6 µM) | > 500 | > 32 | 1 (≈ 2.91 µM) | > 32 | > 32 | > 32 | 2 (≈ 5.82 µM) | > 32 | > 32 | 2 (≈ 5.82 µM) | 2 (≈ 5.82 µM) | 4 (≈ 11.6 µM) | 0.25 (≈ 0.728 µM) | MIC [28]: No growth; IC50 [12]: 63 µg/mL (≈ 183 µM); MIC [18]: 0.25 µg/mL (≈ 0.728 µM); MIC [27]: > 32 µg/mL; MIC [29]: > 32 µg/mL; MIC [30]: No growth
4 | C[C@H]1COc2c(N3CCN(C)CC3)c(F)cc3c(=O)c(C(=O)O)cn1c23.C[C@H]1COc2c(N3CCN(C)CC3)c(F)cc3c(=O)c(C(=O)O)cn1c23.O [LEVOFLOXACIN] | 4 | 0.12 | 0.25 | – | 0.5 | 0.25 | 0.12 | – | 2 | – | 2 | 2 | 0.25 | 0.06 | 0.5 | 0.25 | 0.03 | 0.12 | 0.12 | < 0.004 | MIC [8]: 0.25 µg/mL; MIC [16]: 1 µg/mL; MIC [18]: 0.008 µg/mL
5 | C[C@H]1COc2c(N3CCN(C)CC3)ccc3c(=O)c(C(=O)O)cn1c23 | > 32 | 4 (≈ 11.6 µM) | 16 (≈ 46.6 µM) | 250 (≈ 728 µM) | 4 (≈ 11.6 µM) | > 32 | 4 (≈ 11.6 µM) | > 500 | > 32 | 8 (≈ 23.3 µM) | > 32 | > 32 | > 32 | 8 (≈ 23.3 µM) | > 32 | 32 (≈ 93.2 µM) | 4 (≈ 11.6 µM) | 4 (≈ 11.6 µM) | 8 (≈ 23.3 µM) | 1 (≈ 2.91 µM) | MIC [28]: No growth; MIC [31]: No growth; IC50 [12]: 31 µg/mL (≈ 90.3 µM); MIC [14]: 32 µg/mL (≈ 93.2 µM); MIC [27]: 16 µg/mL (≈ 46.6 µM); MIC [29]: 16 µg/mL (≈ 46.6 µM); MIC [30]: No growth
